# Laboratory results reported in patent US8618107B2 (Gilead Connecticut, Inc., priority 2010, dated 2013).
# Legend:
# [1] = test system: CD69 on CD20 positive cells in human whole blood stimulated by anti-IgM; test: CD69 Whole Blood Assay; assay type: cell-based; conditions: anti-human IgM stimulation, 20 hours
# Procedure: Human blood is obtained from healthy volunteers, with the following restrictions: 1 week drug-free, non-smokers. Blood (approximately 20 mls to test 8 compounds) is collected by venipuncture into Vacutainer® (Becton, Dickinson and Co.) tubes with sodium heparin.
# Solutions of Formula I compounds at 10 mM in DMSO are diluted 1:10 in 100% DMSO, then are diluted by three-fold serial dilutions in 100% DMSO for a ten point dose-response curve. The compounds are further diluted 1:10 in PBS and then an aliquot of 5.5 μl of each compound is added in duplicate to a 2 ml 96-well plate; 5.5 μl of 10% DMSO in PBS is added as control and no-stimulus wells. Human whole blood—HWB (100 μl) is added to each well. After mixing the plates are incubated at 37° C., 5% CO2, 100% humidity for 30 minutes. Goat F(ab′)2 anti-human IgM (10 μl of a 500 μg/ml solution, 50 μg/ml final) is added to each well (except the no-stimulus wells) with mixing and the plates are incubated for an additional 20 hours. At the end of the 20 hour incubation, samples are incubated with fluorescent labeled antibodies for 30 minutes, at 37° C., 5% CO2, 100% humidity. Include induced control, unstained and single stains for compensation adjustments and initial voltage settings. Samples are then lysed with PharM Lyse™ (BD Biosciences Pharmingen) according to the manufacturer's instructions. Samples are then transferred to a 96 well plate suitable to be run on the BD Biosciences HTS 96 well system on the LSRII machine. Data acquired and Mean Fluorescence Intensity values were obtained using BD Biosciences DIVA Software. Results are initially analyzed by FACS analysis software (Flow Jo). […] The IC50 values are calculated by Prism version 5, using a nonlinear regression curve fit.
# Btk = Btk (Homo sapiens (Human), UniProt Q06187); test: standard biochemical Btk Kinase Assay (Example 901)
# Source text: Determination of IC50 values can be accomplished using conventional techniques known in the art. In general, an IC50 can be determined by measuring the activity of a given enzyme in the presence of a range of concentrations of the inhibitor under study. The experimentally obtained values of enzyme activity then are plotted against the inhibitor concentrations used. […] Analogously, other inhibitory concentrations can be defined through appropriate determinations of activity.
# [2] = test system: CD86 surface expression on CD19+/7AAD- mouse splenocytes stimulated with IgM; test: CD86 Inhibition Assay; assay type: cell-based; conditions: Splenocyte; total mouse splenocytes (Balb/c), IgM stimulation 24 hr
# Procedure: Following the 24 hr incubation, cells are transferred to conical bottom clear 96-well plates and pelleted by centrifugation at 1200×g×5 min. […] Cells are sorted on a BD FACSCalibur and gated on the CD19^+/7AAD^− population. The levels of CD86 surface expression on the gated population is measured versus test compound concentration.
# Btk, sequence (Q06187 whole entry): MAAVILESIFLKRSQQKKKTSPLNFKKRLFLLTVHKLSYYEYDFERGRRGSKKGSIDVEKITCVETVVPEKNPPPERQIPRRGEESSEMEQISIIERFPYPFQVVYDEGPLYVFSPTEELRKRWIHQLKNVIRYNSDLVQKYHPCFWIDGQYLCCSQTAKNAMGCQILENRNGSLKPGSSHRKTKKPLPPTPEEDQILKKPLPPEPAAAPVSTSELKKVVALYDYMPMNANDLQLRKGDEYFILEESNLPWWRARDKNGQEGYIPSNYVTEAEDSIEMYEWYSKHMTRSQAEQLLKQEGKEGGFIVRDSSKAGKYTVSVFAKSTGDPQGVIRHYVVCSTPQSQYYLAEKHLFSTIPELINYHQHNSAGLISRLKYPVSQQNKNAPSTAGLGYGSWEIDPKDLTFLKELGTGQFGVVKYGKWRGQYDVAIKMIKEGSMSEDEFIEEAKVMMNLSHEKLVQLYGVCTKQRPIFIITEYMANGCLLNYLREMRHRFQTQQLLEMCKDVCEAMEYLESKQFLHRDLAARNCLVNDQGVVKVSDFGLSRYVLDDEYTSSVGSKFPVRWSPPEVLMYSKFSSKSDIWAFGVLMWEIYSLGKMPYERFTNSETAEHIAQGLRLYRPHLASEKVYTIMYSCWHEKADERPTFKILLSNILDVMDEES
SMILES,melting point,EC50 [2],further results
CC(C)N1CCN(c2ccc(Nc3cc(-c4cc(F)cc(N5CCc6c(sc7c6CC(C)(C)C7)C5=O)c4CO)cn(C)c3=O)nc2)CC1 [Example 239],191 to 192 °C,,
"COCc1c(-c2cc(Nc3ccc(N4CCN(C)CC4)cn3)c(=O)n(C)c2)cc(F)cc1N1CCn2c(cc3c2CCCC3)C1=O [Example 343, 2-{5-fluoro-2-(methoxymethyl)-3-(1-methyl-5-(5-(4-methylpiperazin-1-yl)pyridin-2-ylamino)-6-oxo-1,6-dihydropyridin-3-yl)phenyl)-3,4,6,7,8,9-hexahydropyrazino[1,2-a]indol-1(2H)-one]",,,IC50 [1]: 53 nM
"CCN1CCn2nc(Nc3cc(-c4cc(F)cc(N5CCn6c(cc7c6CC(C)(C)C7)C5=O)c4CO)cn(C)c3=O)cc2C1 [Example 285, 10-{3-[5-({5-Ethyl-4H,5H,6H,7H-pyrazolo[1,5-a]pyrazin-2-yl}amino)-1-methyl-6-oxo-1,6-dihydropyridin-3-yl]-5-fluoro-2-(hydroxymethyl)phenyl}-4,4-dimethyl-1,10-diazatricyclo[6.4.0.0^2,6]dodeca-2(6),7-dien-9-one]",,11 nM,IC50 (Btk; Table 2): 3.6 nM
"CN1CCN(c2ccc(Nc3cc(-c4cccc(N5CCn6c(cc7c6CCCC7)C5=O)c4CO)cn(C)c3=O)nc2)CC1 [Example 113, 2-(2-(hydroxymethyl)-3-(1-methyl-5-(5-(4-methylpiperazin-1-yl)pyridine-2-ylamino)-6-oxo-1,6-dihydropyridin-3-yl)phenyl)-3,4,6,7,8,9-hexahydropyrazino[1,2-a]indol-1(2H)-one]",,21 nM,IC50 (Btk; Table 1): 5 nM
"CN1CCN(c2ccc(Nc3cc(-c4cccc(N5CCc6c(cc7n6CCCC7)C5=O)c4CO)cn(C)c3=O)nc2)CC1 [Example 275, 2-(2-(Hydroxymethyl)-3-(1-methyl-5-(5-(4-methylpiperazin-1-yl)pyridin-2-ylamino)-6-oxo-1,6-dihydropyridin-3-yl)phenyl)-3,4,6,7,8,9-hexahydropyrido[3,4-b]indolizin-1(2H)-one]",180 to 181 °C,,IC50 (Btk; Table 2): 16.3 nM
Cn1cc(-c2cccc(N3CCc4c(sc5c4CC(C)(C)C5)C3=O)c2CO)cc(Nc2cc3n(n2)CCOC3)c1=O [Example 183],167 to 168 °C,,
"CN1CCC(c2ccc(Nc3cc(-c4cccc(N5CCc6c(sc7c6CC(C)(C)C7)C5=O)c4CO)cn(C)c3=O)nc2)CC1 [Example 325, 10-[2-(Hydroxymethyl)-3-(1-methyl-5-{[5-(1-methylpiperidin-4-yl)pyridine-2-yl]amino}-6-oxopyridin-3-yl)phenyl]-4,4-dimethyl-7-thia-10-azatricyclo[6.4.0.0^2,6]dodeca-1(8),2(6)-dien-9-one]",,,IC50 [1]: 24 nM
"CCN1CCc2nc(Nc3cc(-c4cc(F)cc(N5CCn6c(cc7c6CC(C)(C)C7)C5=O)c4CO)cn(C)c3=O)ccc2C1 [Example 284, 10-(3-{5-[(6-Ethyl-5,6,7,8-tetrahydro-1,6-naphthyridin-2-yl)amino]-1-methyl-6-oxo-1,6-dihydropyridin-3-yl}-5-fluoro-2-(hydroxymethyl)phenyl)-4,4-dimethyl-1,10-diazatricyclo[6.4.0.0^2,6]dodeca-2(6),7-dien-9-one]",,6 nM,IC50 (Btk; Table 2): 2.8 nM
"CN(C)CCN(C)c1ccc(Nc2cc(-c3cc(F)cc(N4CCc5c(sc6c5CCCC6)C4=O)c3CO)cn(C)c2=O)nc1 [Example 286, 2-(3-(5-(5-((2-(Dimethylamino)ethyl)(methyl)amino)pyridin-2-ylamino)-1-methyl-6-oxo-1,6-dihydropyridin-3-yl)-5-fluoro-2-(hydroxymethyl)phenyl)-3,4,5,6,7,8-hexahydrobenzothieno[2,3-c]pyridin-1(2H)-one]",122 to 123 °C,4 nM,
"Cn1cc(-c2cc(F)cc(N3CCn4c(cc5c4CC(C)(C)C5)C3=O)c2CO)cc(Nc2ccc(N3CCN(CCF)CC3)cn2)c1=O [Example 273, 10-{5-Fluoro-3-[5-({5-[4-(2-fluoroethyl)piperazin-1-yl]pyridine-2-yl}amino)-1-methyl-6-oxo-1,6-dihydropyridin-3-yl]-2-(hydroxymethyl)phenyl}-4,4-dimethyl-1,10-diazatricyclo[6.4.0.0^2,6]dodeca-2(6),7-dien-9-one]",,3 nM,IC50 (Btk; Table 2): 6.35 nM
"Cn1cc(-c2cccc(N3CCc4c(sc5c4CC(C)(C)C5)C3=O)c2CO)nc(Nc2cccnc2)c1=O [Example 193, 5-(2-(Hydroxymethyl)-3-(6,6-dimethyl-3,4,6,7-tetrahydro-5H-cyclopenta[4,5]thieno[2,3-c]pyridine-1(2H)-yl))-1-methyl-3-(pyridin-3-ylamino)pyrazin-2(1H)-one]",135 to 136 °C,,
CN1CCCC1c1ccc(Nc2cc(-c3cc(F)cc(N4CCc5c(sc6c5CCCC6)C4=O)c3CO)cn(C)c2=O)nc1 (stereo not shown),164 to 166 °C,,
"Cn1cc(-c2cccc(N3CCn4c(cc5c4CC(C)(C)C5)C3=O)c2CO)cc(Nc2ccc(N3CCN(C4COC4)CC3)cn2)c1=O [Example 311, 10-[2-(Hydroxymethyl)-3-[1-methyl-5-({5-[4-(oxetan-3-yl)piperazin-1-yl]pyridine-2-yl}amino)-6-oxo-1,6-dihydropyridin-3-yl]phenyl]-4,4-dimethyl-1,10-diazatricyclo[6.4.0.0^2,6]dodeca-2(6),7-dien-9-one]",,30 nM,
"CN(Cc1cc(Nc2cc(-c3cc(F)cc(N4CCn5c(cc6c5CC(C)(C)C6)C4=O)c3CO)cn(C)c2=O)nn1C)C1COC1 [Example 321, 10-[5-Fluoro-2-(Hydroxymethyl)-3-{1-methyl-5-[(1-methyl-5-{[methyl(oxetan-3-yl)amino]methyl}-1H-pyrazol-3-yl)amino]-6-oxo-1,6-dihydropyridin-3-yl}phenyl]-4,4-dimethyl-1,10-diazatricyclo[6.4.0.0^2,6]dodeca-2(6),7-dien-9-one]",,44 nM,
"Cc1cc(Nc2cc(-c3cccc(N4CCc5c(cc6n5CCCC6)C4=O)c3CO)cn(C)c2=O)n[nH]1 [Example 225, 2-(2-(Hydroxymethyl)-3-(1-methyl-5-(5-methyl-1H-pyrazol-3-ylamino)-6-oxo-1,6-dihydropyridin-3-yl)phenyl)-3,4,6,7,8,9-hexahydropyrido[3,4-b]indolizin-1(2H)-one]",199 to 200 °C,,
"Cn1cc(-c2cccc(N3CCn4c(cc5c4CCCC5)C3=O)c2CO)cc(Nc2cc3n(n2)CCOC3)c1=O [Example 110, 2-(3-(5-(6,7-dihydro-4H-pyrazolo[5,1-c][1,4]oxazin-2-ylamino)-1-methyl-6-oxo-1,6-dihydropyridin-3-yl)-2-(hydroxymethyl)phenyl)-3,4,6,7,8,9-hexahydropyrazino[1,2-a]indol-1(2H)-one]",,22 nM,IC50 (Btk; Table 1): 7.7 nM
"CN1CCC[C@H]1c1ccc(Nc2cc(-c3cc(F)cc(N4CCn5c(cc6c5CC(C)(C)C6)C4=O)c3CO)cn(C)c2=O)nc1 [Example 290, 10-[5-Fluoro-2-(hydroxymethyl)-3-[1-methyl-5-({5-[(2S)-1-methylpyrrolidin-2-yl]pyridine-2-yl}amino)-6-oxo-1,6-dihydropyridin-3-yl]phenyl]-4,4-dimethyl-1,10-diazatricyclo[6.4.0.0^2,6]dodeca-2(6),7-dien-9-one]",,10 nM,
Cn1cc(-c2cc(F)cc(N3CCc4c(sc5c4CC(C)(C)C5)C3=O)c2CO)cc(Nc2ccc(N3CCN(C4COC4)CC3)cn2)c1=O [Example 237],175 to 177 °C,,
"Cn1cc(-c2cc(F)cc(N3CCc4c(sc5c4CCCC5)C3=O)c2CO)cc(Nc2ccc(N3CCN(C4COC4)CC3)cn2)c1=O [Example 211, 5-[5-Fluoro-2-(hydroxymethyl)-3-[1-methyl-5-({5-[4-(oxetan-3-yl)piperazin-1-yl]pyridin-2-yl}amino)-6-oxo-1,6-dihydropyridin-3-yl]phenyl]-8-thia-5-azatricyclo[7.4.0.0^2,7]trideca-1(9),2(7)-dien-6-one]",,9 nM,
"CN(C)CCOc1ccc(Nc2cc(-c3cc(F)cc(N4CCc5c(sc6c5CC(C)(C)C6)C4=O)c3CO)cn(C)c2=O)nc1 [Example 296, 10-{3-[5-({5-[2-(Dimethylamino)ethoxy]pyridin-2-yl}amino)-1-methyl-6-oxo-1,6-dihydropyridin-3-yl]-5-fluoro-2-(hydroxymethyl)phenyl}-4,4-dimethyl-7-thia-10-azatricyclo[6.4.0.0^2,6]dodeca-1(8),2(6)-dien-9-one]",,1 nM,
"Cn1cc(-c2cccc(N3CCc4c(cc5n4CCCC5)C3=O)c2CO)cc(Nc2ccc(C3CNC3)cn2)c1=O [Example 227, 2-(3-(5-(5-(Azetidin-3-yl)pyridin-2-ylamino)-1-methyl-6-oxo-1,6-dihydropyridin-3-yl)-2-(hydroxymethyl)phenyl)-3,4,6,7,8,9-hexahydropyrido[3,4-b]indolizin-1(2H)-one]",227 to 229 °C,,
"Cn1cc(-c2cccc(-n3ccc4c5c(sc4c3=O)CC(C)(C)C5)c2CO)cc(Nc2ccncn2)c1=O [Example 203, 5-(3-(6,6-Dimethyl-5,7-dihydro-5H-cyclopenta[4,5]thieno[2,3-c]pyridine-1(2H)-yl)-2-(hydroxymethyl)phenyl)-1-methyl-3-(pyrimidin-4-ylamino)pyridin-2(1H)-one]",170 to 171 °C,,
CN1CCN(c2ccc(Nc3cc(-c4cc(F)cc(N5CCc6c(sc7c6CC(C)(C)C7)C5=O)c4CO)cn(C)c3=O)nc2)CC1 [Example 204],143 to 145 °C,,
"Cn1cc(-c2cc(F)cc(N3CCn4c(cc5c4CCCC5)C3=O)c2CO)cc(Nc2ccc(N3CCN(C4COC4)CC3)cn2)c1=O [Example 210, 2-(5-fluoro-2-(hydroxymethyl)-3-(1-methyl-5-(5-(4-(oxetan-3-yl)piperazin-1-yl)pyridin-2-ylamino)-6-oxo-1,6-dihydropyridin-3-yl)phenyl)-3,4,6,7,8,9-hexahydropyrazino[1,2-a]indol-1(2H)-one]",,10 nM,
